These are literature values, as cited in patent US20230310465A1, “NANO LIPID CARRIER SYSTEM FOR IMPROVING PERMEATION OF ACTIVE INGREDIENTS” (LEIUTIS PHARMACEUTICALS LLP, priority 2020, published 2023).

The conditions of this series: from Akynezo, healthy subjects.

Each structure is given as a SMILES string.

Consider `Cc1ccccc1-c1cc(N2CCN(C)CC2)ncc1N(C)C(=O)C(C)(C)c1cc(C(F)(F)F)cc(C(F)(F)F)c1` [Netupitant, 2-[3,5-bis(trifluoromethyl)phenyl]-N,2-dimethyl-N-[4-(2methylphenyl)-6-(4-methylpiperazin-1-yl)pyridin-3-yl]propenamide], for which the Tmax entry is recorded as “about 5 hrs”.
